Results: PubChem BioAssay (NCI)
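All cell lines were grown in 96-well plates and treated with compound for 48 hours. Abbreviation: GI50, concentration required for 50% inhibition of growth. Definition used: TGI = concentration required for complete inhibition of growth.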

Experiments:
Test in all cases: growth of human tumour cells (NCI), 48 h
786-0 renal = system: 786-0 renal
A498 renal = system: A498 renal
A549 NSCLC = system: A549 NSCLC
ACHN renal = system: ACHN renal
BT-549 breast = system: BT-549 breast
CAKI-1 renal = system: CAKI-1 renal
CCRF-CEM leukemia = system: CCRF-CEM leukemia
COLO 205 colon = system: COLO 205 colon
DU-145 prostate = system: DU-145 prostate
EKVX NSCLC = system: EKVX NSCLC
HCC-2998 colon = system: HCC-2998 colon
HCT-116 colon = system: HCT-116 colon
HCT-15 colon = system: HCT-15 colon
HOP-62 NSCLC = system: HOP-62 NSCLC
HOP-92 NSCLC = system: HOP-92 NSCLC
HS 578T breast = system: HS 578T breast
HT29 colon = system: HT29 colon
IGROV1 ovarian = system: IGROV1 ovarian
K-562 leukemia = system: K-562 leukemia
KM12 colon = system: KM12 colon
LOX IMVI melanoma = system: LOX IMVI melanoma
M14 melanoma = system: M14 melanoma
MALME-3M melanoma = system: MALME-3M melanoma
MCF7 breast = system: MCF7 breast
MDA-MB-231 breast = system: MDA-MB-231 breast
MDA-MB-435 = system: MDA-MB-435
MOLT-4 leukemia = system: MOLT-4 leukemia
NCI-H226 lung = system: NCI-H226 lung
NCI-H23 lung = system: NCI-H23 lung
NCI-H460 lung = system: NCI-H460 lung
NCI-H522 lung = system: NCI-H522 lung
NCI/ADR-RES ovarian = system: NCI/ADR-RES ovarian
OVCAR-3 ovarian = system: OVCAR-3 ovarian
OVCAR-4 ovarian = system: OVCAR-4 ovarian
OVCAR-5 ovarian = system: OVCAR-5 ovarian
OVCAR-8 ovarian = system: OVCAR-8 ovarian
PC-3 prostate = system: PC-3 prostate
RPMI-8226 leukemia = system: RPMI-8226 leukemia
RXF 393 renal = system: RXF 393 renal
SF-268 CNS = system: SF-268 CNS
SF-295 CNS = system: SF-295 CNS
SF-539 CNS = system: SF-539 CNS
SK-MEL-2 melanoma = system: SK-MEL-2 melanoma
SK-MEL-28 melanoma = system: SK-MEL-28 melanoma
SK-MEL-5 melanoma = system: SK-MEL-5 melanoma
SK-OV-3 ovarian = system: SK-OV-3 ovarian
SN12C renal = system: SN12C renal
SNB-19 CNS = system: SNB-19 CNS
SNB-75 CNS = system: SNB-75 CNS
SR leukemia = system: SR leukemia
SW-620 colon = system: SW-620 colon
T-47D breast = system: T-47D breast
TK-10 renal = system: TK-10 renal
U251 CNS = system: U251 CNS
UACC-257 melanoma = system: UACC-257 melanoma
UACC-62 melanoma = system: UACC-62 melanoma
UO-31 renal = system: UO-31 renal

Structure (SMILES): Cc1ccc(NC(=O)Nc2nc3ccc([N+](=O)[O-])cc3s2)cc1
- GI50 (786-0 renal): 2890 nM
- TGI (786-0 renal): 12.4 µM
- GI50 (A498 renal): 1410 nM
- TGI (A498 renal): 4.38 µM
- GI50 (A549 NSCLC): 2790 nM
- TGI (A549 NSCLC): 10.5 µM
- GI50 (ACHN renal): 2780 nM
- TGI (ACHN renal): 11.4 µM
- GI50 (BT-549 breast): 2020 nM
- TGI (BT-549 breast): 5.88 µM
- GI50 (CAKI-1 renal): 1790 nM
- TGI (CAKI-1 renal): 6.23 µM
- GI50 (CCRF-CEM leukemia): 2130 nM
- TGI (CCRF-CEM leukemia): 7.71 µM
- GI50 (COLO 205 colon): 1910 nM
- TGI (COLO 205 colon): 3.84 µM
- GI50 (DU-145 prostate): 3.26 µM
- TGI (DU-145 prostate): 11.7 µM
- GI50 (EKVX NSCLC): 2750 nM
- TGI (EKVX NSCLC): 10.9 µM
- GI50 (HCC-2998 colon): 2600 nM
- TGI (HCC-2998 colon): 10.1 µM
- GI50 (HCT-116 colon): 1790 nM
- TGI (HCT-116 colon): 5.22 µM
- GI50 (HCT-15 colon): 2370 nM
- TGI (HCT-15 colon): 9.19 µM
- GI50 (HOP-62 NSCLC): 3.1 µM
- TGI (HOP-62 NSCLC): 10.7 µM
- GI50 (HOP-92 NSCLC): 1370 nM
- TGI (HOP-92 NSCLC): 5.44 µM
- GI50 (HS 578T breast): 3.02 µM
- TGI (HS 578T breast): 13.9 µM
- GI50 (HT29 colon): 3.28 µM
- TGI (HT29 colon): 11.6 µM
- GI50 (IGROV1 ovarian): 3.59 µM
- TGI (IGROV1 ovarian): 14.3 µM
- GI50 (K-562 leukemia): 1440 nM
- TGI (K-562 leukemia): 9.56 µM
- GI50 (KM12 colon): 2450 nM
- TGI (KM12 colon): 8.15 µM
- GI50 (LOX IMVI melanoma): 2360 nM
- TGI (LOX IMVI melanoma): 5.96 µM
- GI50 (M14 melanoma): 2920 nM
- TGI (M14 melanoma): 10.6 µM
- GI50 (MALME-3M melanoma): 2660 nM
- TGI (MALME-3M melanoma): 7.71 µM
- GI50 (MCF7 breast): 1990 nM
- TGI (MCF7 breast): 7.77 µM
- GI50 (MDA-MB-231 breast): 3.04 µM
- TGI (MDA-MB-231 breast): 10.3 µM
- GI50 (MDA-MB-435): 2320 nM
- TGI (MDA-MB-435): 9.33 µM
- GI50 (MOLT-4 leukemia): 2090 nM
- TGI (MOLT-4 leukemia): 6.33 µM
- GI50 (NCI-H226 lung): 2750 nM
- TGI (NCI-H226 lung): 12.3 µM
- GI50 (NCI-H23 lung): 1890 nM
- TGI (NCI-H23 lung): 6.78 µM
- GI50 (NCI-H460 lung): 2840 nM
- TGI (NCI-H460 lung): 10.4 µM
- GI50 (NCI-H522 lung): 1140 nM
- TGI (NCI-H522 lung): 5.21 µM
- GI50 (NCI/ADR-RES ovarian): 2500 nM
- TGI (NCI/ADR-RES ovarian): 7.79 µM
- GI50 (OVCAR-3 ovarian): 2430 nM
- TGI (OVCAR-3 ovarian): 9.63 µM
- GI50 (OVCAR-4 ovarian): 1410 nM
- TGI (OVCAR-4 ovarian): 9.32 µM
- GI50 (OVCAR-5 ovarian): 4.32 µM
- TGI (OVCAR-5 ovarian): 18.3 µM
- GI50 (OVCAR-8 ovarian): 3.2 µM
- TGI (OVCAR-8 ovarian): 14 µM
- GI50 (PC-3 prostate): 2140 nM
- TGI (PC-3 prostate): 8.83 µM
- GI50 (RPMI-8226 leukemia): 1260 nM
- TGI (RPMI-8226 leukemia): 3.77 µM
- GI50 (RXF 393 renal): 2010 nM
- TGI (RXF 393 renal): 5.75 µM
- GI50 (SF-268 CNS): 3.52 µM
- TGI (SF-268 CNS): 16 µM
- GI50 (SF-295 CNS): 1920 nM
- TGI (SF-295 CNS): 5.21 µM
- GI50 (SF-539 CNS): 3.15 µM
- TGI (SF-539 CNS): 10.4 µM
- GI50 (SK-MEL-2 melanoma): 2190 nM
- TGI (SK-MEL-2 melanoma): 6.03 µM
- GI50 (SK-MEL-28 melanoma): 3.1 µM
- TGI (SK-MEL-28 melanoma): 15.1 µM
- GI50 (SK-MEL-5 melanoma): 1420 nM
- TGI (SK-MEL-5 melanoma): 3.51 µM
- GI50 (SK-OV-3 ovarian): 2910 nM
- TGI (SK-OV-3 ovarian): 10.1 µM
- GI50 (SN12C renal): 2540 nM
- TGI (SN12C renal): 12.5 µM
- GI50 (SNB-19 CNS): 2700 nM
- TGI (SNB-19 CNS): 13.4 µM
- GI50 (SNB-75 CNS): 1950 nM
- TGI (SNB-75 CNS): 6.27 µM
- GI50 (SR leukemia): 1290 nM
- TGI (SR leukemia): 5.06 µM
- GI50 (SW-620 colon): 2930 nM
- TGI (SW-620 colon): 10.7 µM
- GI50 (T-47D breast): 799 nM
- TGI (T-47D breast): 6.4 µM
- GI50 (TK-10 renal): 2940 nM
- TGI (TK-10 renal): 11.6 µM
- GI50 (U251 CNS): 2340 nM
- TGI (U251 CNS): 10.9 µM
- GI50 (UACC-257 melanoma): 1820 nM
- TGI (UACC-257 melanoma): 6.78 µM
- GI50 (UACC-62 melanoma): 2770 nM
- TGI (UACC-62 melanoma): 13.7 µM
- GI50 (UO-31 renal): 2510 nM
- TGI (UO-31 renal): 10.5 µM
